Results reported in PMC3884022 (Journal of Hematology & Oncology, 2014).

Test system: advanced solid tumors
Assay: Phase 1 combination study: tumor response (RECIST)
Assay type: in vivo, human
Protocol: Circulating nucleic acids were analyzed for PIK3CA (exons 9 and 20), KRAS (exons 2 and 3), and BRAF (exons 11 and 15) mutations. DNA extracted from whole blood samples was subjected to real-time quantitative polymerase chain reaction and spectrophotometric analysis as part of the quality control process, as previously described. Mutation screening was performed using Surveyor Nuclease (Transgenomic, Inc., Nebraska, USA). Radiologic assessment (computed tomography [CT] and/or magnetic resonance imaging [MRI] scans) of disease status was performed at baseline and every 6 weeks according to Response Evaluation Criteria in Solid Tumors (v1.0).

## NC1(c2ccc(-c3nc4ccn5c(=O)[nH]nc5c4cc3-c3ccccc3)cc2)CCC1 [MK-2206]
1 metastatic breast cancer patient harboring a PIK3CA mutation (exon 20)
  duration of SD: 4 months
Arm 1
  duration of PR, range: 2–21 months
  median duration of PR: 11 months
Arm 1, QOD and Q3W schedules, melanoma, neuroendocrine prostate, endometrial, cervical
  confirmed partial responses, patients: 4
Arm 1, SCC of the head and neck (n = 1)
  duration of unconfirmed PR: 2 month
Arm 1, SCC of the head and neck, and gastric
  unconfirmed PRs, patients: 2 patients
Arm 1, cervical (n = 1)
  duration of confirmed PR: 6 month
Arm 1, endometrial (n = 1)
  duration of confirmed PR: 4 month
Arm 1, gastric (n = 1)
  duration of unconfirmed PR: 2 month
Arm 1, melanoma (n = 1)
  duration of confirmed PR: 21 month
Arm 1, neuroendocrine prostate (n = 1)
  duration of confirmed PR: 6 month
Arm 1 carboplatin and paclitaxel, squamous cell carcinoma (SCC) of the orbit, 24 evaluable
  complete response, patients: 1 patient
Arm 2, MK-2206 200 mg with docetaxel, NSCLC patient
  duration of PR: 6 months
Arm 2, Q3W MK-2206 and docetaxel, NSCLC
  confirmed PR, patients: One
Arm 3 erlotinib
  objective responses: No objective responses
Arm 3 erlotinib, QW schedule, patient with NSCLC
  best response SD, duration: 7 months
Arm 3 erlotinib, patient with cervical cancer
  best response SD, duration: 6 months
In vivo
  duration of SD, range: 1–13 months
  median duration of SD: 7 months
  patients with SD lasting at least 6 months: Six
Patients harboring PIK3CA mutations
  duration of SD: 1.7 to 5.8 months
Patients with KRAS mutations
  duration of SD: 1.4 to 3.0 months
